From patent US8716292B2, “Riminophenazines with 2-(heteroaryl)amino substituents and their anti-microbial activity” (priority 2010, dated 2014)
Converted amounts (≈) assume the structure as drawn.

Test system: Mycobacterium tuberculosis H37Rv strains
Assay: In vitro assay for antimicrobial susceptibility (microplate Alamar blue MIC)
Type: cell-based
Settings: Mycobacterium tuberculosis, H37RV, 7H9, Alamar blue, inhibition ≧90%; read-out: MIC (μg/mL) against H37Rv

Row | SMILES | MIC [µg/mL]
1 | COC1CCC(/N=c2\cc3n(-c4ccc(F)c(F)c4)c4ccccc4nc-3cc2Nc2ccc([N+](=O)[O-])cn2)CC1 (stereo not shown) [TBI-1444, 5-(3,4-Difluorophenyl)-3-(4-methoxycyclohexyl)imino-2-(5-nitro-2-pyridyl)amino-3,5-dihydrophenazine] | 0.114 (≈ 0.205 µM)
2 | COC1CCC(/N=c2\cc3n(-c4ccc(F)c(F)c4)c4ccccc4nc-3cc2Nc2ncccn2)CC1 (stereo not shown) [TBI-1433, 5-(3,4-Difluorophenyl)-3-(4-methoxycyclohexyl)imino-2-(pyrimidin-2-yl)amino-3,5-dihydrophenazine] | 0.086 (≈ 0.168 µM)
3 | CC(C)/N=c1\cc2n(-c3ccc(F)cc3)c3ccccc3nc-2cc1Nc1ncccc1C#N [TBI-1057] | 0.015 (≈ 0.0334 µM)

Same assay, conditions: Mycobacterium tuberculosis, H37RV, in vitro, Mycobacterium tuberculosis H37Rv strains; read-out: MIC (μg/mL) against H37Rv

Row | SMILES | MIC [µg/mL]
4 | COC1CCC(/N=c2\cc3n(-c4ccc(C(F)(F)F)cc4)c4ccccc4nc-3cc2Nc2cncc(C)c2)CC1 (stereo not shown) [TBI-724, 5-(4-Trifluoromethylphenyl)-3-(4-methoxycyclohexyl)imino-2-(5-meth-3-pyridyl)amino-3,5-dihydrophenazine] | 0.03 (≈ 0.0538 µM)
5 | CC(C)/N=c1\cc2n(-c3ccc(F)c(F)c3)c3ccccc3nc-2cc1Nc1cccnc1 [TBI-525, 5-(3,4-Difluorophenyl)-3-(1-methylethyl)imino-2-(3-pyridyl)amino-3,5-dihydrophenazine] | 0.058 (≈ 0.131 µM)
6 | Cc1ccc(-n2c3c/c(=N\C4CCCCC4)c(Nc4ccc(C)nc4)cc-3nc3ccccc32)cc1 [TBI-306, 5-(4-Methylphenyl)-3-cyclohexylimino-2-(6-methyl-3-pyridyl)amino-3,5-dihydrophenazine] | 0.106 (≈ 0.224 µM)
7 | COc1ncccc1Nc1cc2nc3ccccc3n(-c3ccc(C)cc3)c-2c/c1=N\CCN1CCOCC1 [TBI-311, 5-(4-Methylphenyl)-3-(2-morpholinoethyl)imino-2-(2-methoxy-3-pyridyl)amino-3,5-dihydrophenazine] | 0.125 (≈ 0.24 µM)
8 | Fc1ccc(-n2c3c/c(=N\C4CC4)c(Nc4cccnc4)cc-3nc3ccccc32)cc1 [TBI-922, 5-(4-Fluorophenyl)-3-cyclopropylimino-2-(3-pyridyl)amino-3,5-dihydrophenazine] | 0.012 (≈ 0.0285 µM)
9 | Cc1cncc(Nc2cc3nc4ccccc4n(-c4ccc(C(F)(F)F)cc4)c-3c/c2=N\C(C)C)c1 [TBI-721, 5-(4-Trifluoromethylphenyl)-3-(1-methylethyl)imino-2-(5-methyl-3-pyridyl)amino-3,5-dihydrophenazine] | 0.082 (≈ 0.168 µM)
10 | Cc1ccc(-n2c3c/c(=N\C4CCC4)c(Nc4cccnc4)cc-3nc3ccccc32)cc1 [TBI-345, 5-(4-Methylphenyl)-3-cyclobutylimino-2-(3-pyridyl)amino-3,5-dihydrophenazine] | 0.221 (≈ 0.512 µM)
11 | COc1ncccc1Nc1cc2nc3ccc(F)cc3n(-c3ccc(Cl)c(Cl)c3)c-2c/c1=N\C1CC1 [TBI-885, 7-Fluoro-5-(3,4-dichlorophenyl)-3-cyclopropylimino-2-(2-methoxy-3-pyridyl)amino-3,5-dihydrophenazine] | 0.06 (≈ 0.115 µM)
12 | COc1ccc(Nc2cc3nc4ccccc4n(-c4ccc(C(F)(F)F)cc4)c-3c/c2=N\C2CCOCC2)cn1 [TBI-733, 5-(4-Trifluoromethylphenyl)-3-(4-tetrahydropyranyl)imino-2-(6-methoxy-3-pyridyl)amino-3,5-dihydrophenazine] | 0.111 (≈ 0.203 µM)
13 | COc1ncccc1Nc1cc2nc3ccccc3n(-c3ccc(NC(C)=O)cc3)c-2c/c1=N\C(C)C [TBI-1220, 5-(4-Acetamidophenyl)-3-(1-methylethyl)imino-2-(2-methoxy-3-pyridyl)amino-3,5-dihydrophenazine] | > 0.5
14 | COc1ncccc1Nc1cc2nc3ccccc3n(-c3ccc(Cl)cc3)c-2c/c1=N\CCN1CCOCC1 [TBI-439, 5-(4-Chlorophenyl)-3-(2-morpholinoethyl)imino-2-(2-methoxy-3-pyridyl)amino-3,5-dihydrophenazine] | 0.06 (≈ 0.111 µM)
15 | COc1ncccc1Nc1cc2nc3ccccc3n(-c3ccc(C(F)(F)F)cc3)c-2c/c1=N\C1CCCCC1 [TBI-710, 5-(4-Trifluoromethylphenyl)-3-cyclohexylimino-2-(2-methoxy-3-pyridyl)amino-3,5-dihydrophenazine] | 0.03 (≈ 0.0552 µM)
16 | Cc1ccc(-n2c3c/c(=N\C4CCCCC4)c(Nc4cccnc4C)cc-3nc3ccccc32)cc1 [TBI-312, 5-(4-Methylphenyl)-3-cyclohexylimino-2-(2-methyl-3-pyridyl)amino-3,5-dihydrophenazine] | 0.053 (≈ 0.112 µM)
17 | COC1CCC(/N=c2\cc3n(-c4ccc(C)cc4)c4ccccc4nc-3cc2Nc2ccc(C)nc2)CC1 (stereo not shown) [TBI-316, 5-(4-Methylphenyl)-3-(4-methoxycyclohexyl)imino-2-(6-methyl-3-pyridyl)amino-3,5-dihydrophenazine] | 0.028 (≈ 0.0556 µM)
18 | COc1ccc2nc3cc(Nc4ccc(C)nc4)/c(=N/C4CC4)cc-3n(-c3ccc(Cl)cc3)c2c1 [TBI-868, 7-Methoxy-5-(4-chlorophenyl)-3-cyclopropylimino-2-(6-methyl-3-pyridyl)amino-3,5-dihydrophenazine] | 0.028 (≈ 0.0581 µM)
19 | Fc1ccc(-n2c3c/c(=N\C4CCCCC4)c(Nc4cccnc4)cc-3nc3ccccc32)cc1 [TBI-920, 5-(4-Fluorophenyl)-3-cyclohexylimino-2-(3-pyridyl)amino-3,5-dihydrophenazine] | 0.029 (≈ 0.0626 µM)
20 | Cc1ccc(-n2c3c/c(=N\C4CCC(O)CC4)c(Nc4cncc(C)c4)cc-3nc3ccccc32)cc1 (stereo not shown) [TBI-337, 5-(4-Methylphenyl)-3-(4-hydroxycyclohexyl)imino-2-(5-methyl-3-pyridyl)amino-3,5-dihydrophenazine] | 0.452 (≈ 0.923 µM)
21 | COC1CCC(/N=c2\cc3n(-c4ccccc4)c4ccccc4nc-3cc2Nc2cncc(C)c2)CC1 (stereo not shown) [TBI-084, 5-Phenyl-3-(4-methoxycyclohexyl)imino-2-(5-methyl-3-pyridyl)amino-3,5-dihydrophenazine] | 0.059 (≈ 0.121 µM)
22 | Cc1ncccc1Nc1cc2nc3ccccc3n(-c3ccc(C(F)(F)F)cc3)c-2c/c1=N\C1CCCCC1 [TBI-708, 5-(4-Trifluoromethylphenyl)-3-cyclohexylimino-2-(2-methyl-3-pyridyl)amino-3,5-dihydrophenazine] | 0.028 (≈ 0.0531 µM)

Row | SMILES | MIC [µg/mL]
23 | COC1CCC(/N=c2\cc3n(-c4ccc(F)c(F)c4)c4ccccc4nc-3cc2Nc2cccnc2)CC1 (stereo not shown) [TBI-1430, 5-(3,4-Difluorophenyl)-3-(4-methoxycyclohexyl)imino-2-(3-pyridyl)amino-3,5-dihydrophenazine] | 0.059 (≈ 0.115 µM)
24 | CC(C)/N=c1\cc2n(-c3ccccc3)c3ccccc3nc-2cc1Nc1cccnc1 [TBI-054, 5-Phenyl-3-(1-methyethyl)imino-2-(3-pyridyl)amino-3,5-dihydrophenazine] | 0.03 (≈ 0.074 µM)
25 | Cc1ccc(Nc2cc3nc4ccccc4n(-c4ccc(Cl)c(Cl)c4)c-3c/c2=N\C(C)C)cn1 [TBI-353] | 0.025 (≈ 0.0512 µM)
26 | COc1ccc(Nc2cc3nc4ccccc4n(-c4ccc(C(F)(F)F)cc4)c-3c/c2=N\C2CCC(OC)CC2)cn1 (stereo not shown) [TBI-735, 5-(4-Trifluoromethylphenyl)-3-(4-methoxycyclohexyl)imino-2-(6-methoxy-3-pyridyl)amino-3,5-dihydrophenazine] | 0.186 (≈ 0.324 µM)
27 | COc1ncccc1Nc1cc2nc3ccccc3n(-c3ccccc3Cl)c-2c/c1=N\C1CCOCC1 [TBI-870] | 0.084 (≈ 0.164 µM)
28 | Fc1ccc(-n2c3c/c(=N\C4CCC4)c(Nc4cccnc4)cc-3nc3ccccc32)cc1 [TBI-923, 5-(4-Fluorophenyl)-3-cyclobutylimino-2-(3-pyridyl)amino-3,5-dihydrophenazine] | 0.021 (≈ 0.0482 µM)
29 | CC(=O)Nc1ccc(Nc2cc3nc4ccccc4n(-c4ccc(C(F)(F)F)cc4)c-3c/c2=N\C2CCCCC2)cn1 [TBI-713, 5-(4-Trifluoromethylphenyl)-3-cyclohexylimino-2-(6-acetamino-3-pyridyl)amino-3,5-dihydrophenazine] | 0.022 (≈ 0.0386 µM)
30 | CN1CCC(/N=c2\cc3n(-c4ccccc4)c4ccccc4nc-3cc2Nc2cccnc2)CC1 [TBI-055, 5-Phenyl-3-(N-methyl-4-piperidyl)imino-2-(3-pyridyl)amino-3,5-dihydrophenazine] | 0.5 (≈ 1.09 µM)
31 | Cc1ncccc1Nc1cc2nc3ccccc3n(-c3ccc(Cl)cc3)c-2c/c1=N\C(C)C [TBI-448, 5-(4-Chlorophenyl)-3-(1-methylethyl)imino-2-(2-methyl-3-pyridyl)amino-3,5-dihydrophenazine] | 0.055 (≈ 0.121 µM)
32 | COCC(COC)/N=c1\cc2n(-c3ccc(Cl)cc3)c3ccccc3nc-2cc1Nc1cccnc1OC [TBI-871, 5-(4-Chlorophenyl)-3-(1,3-dimethoxyisopropyl)imino-2-(2-methoxy-3-pyridyl)amino-3,5-dihydrophenazine] | 0.03 (≈ 0.0566 µM)
33 | FC(F)(F)Oc1ccc(-n2c3c/c(=N\CCN4CCOCC4)c(Nc4cccnc4)cc-3nc3ccccc32)cc1 [TBI-160] | 0.125 (≈ 0.223 µM)
34 | Cc1cncc(Nc2cc3nc4ccccc4n(-c4ccccc4)c-3c/c2=N\C2CCC(O)CC2)c1 (stereo not shown) [TBI-085, 5-Phenyl-3-(4-hydroxycyclohexyl)imino-2-(5-methyl-3-pyridyl)amino-3,5-dihydrophenazine] | 0.5 (≈ 1.05 µM)
35 | COc1ncccc1Nc1cc2nc3cc(F)ccc3n(-c3ccc(Cl)cc3)c-2c/c1=N\C1CC1 [TBI-859, 8-Fluoro-5-(4-chlorophenyl)-3-cyclopropylimino-2-(2-methoxy-3-pyridyl)amino-3,5-dihydrophenazine] | 0.015 (≈ 0.0309 µM)
36 | Cc1cncc(Nc2cc3nc4ccccc4n(-c4ccc(F)cc4)c-3c/c2=N\C2CCOCC2)c1 [TBI-1028, 5-(4-Fluorophenyl)-3-(4-tetrahydropyranyl)imino-2-(5-methyl-3-pyridyl)amino-3,5-dihydrophenazine] | 0.06 (≈ 0.125 µM)
37 | Cc1ccc(Nc2cc3nc4ccccc4n(-c4ccccc4)c-3c/c2=N\C2CCN(C)CC2)cn1 [TBI-069, 5-Phenyl-3-(N-methyl-4-piperidyl)imino-2-(6-methyl-3-pyridyl)amino-3,5-dihydrophenazine] | 0.219 (≈ 0.461 µM)
38 | Cc1ccc(-n2c3c/c(=N\C4CCN(C)CC4)c(Nc4cccnc4)cc-3nc3ccccc32)cc1 [TBI-304, 5-(4-Methylphenyl)-3-(N-methyl-4-piperidyl)imino-2-(3-pyridinyl)amino-3,5-dihydro-phenazine] | 0.25 (≈ 0.527 µM)
39 | COc1ncccc1Nc1cc2nc3ccccc3n(-c3ccc(Cl)cc3)c-2c/c1=N\C1CCCCC1 [TBI-451] | 0.057 (≈ 0.112 µM)
40 | COc1ccc(Nc2cc3nc4ccccc4n(-c4ccc(F)cc4)c-3c/c2=N\C2CC2)cn1 [TBI-931, 5-(4-Fluorophenyl)-3-cyclopropyimino-2-(6-methoxy-3-pyridyl)amino-3,5-dihydrophenazine] | 0.238 (≈ 0.527 µM)
